These are literature values, as cited in patent US7994210B2, “Method of treating Down Syndrome” (priority 2004, dated 2011).

The target of data set [1] is acetylcholinesterase (Homo sapiens, UniProt P22303).
Data set [2] concerns beta-amyloid precursor protein (beta-APP).
[3] abbreviates: listed as (+)9-N-phenylcarbinol eseroline.

Read-outs that look alike come from different tables or passages of the source.

acetylcholinesterase, sequence (P22303 32-614, species assumed): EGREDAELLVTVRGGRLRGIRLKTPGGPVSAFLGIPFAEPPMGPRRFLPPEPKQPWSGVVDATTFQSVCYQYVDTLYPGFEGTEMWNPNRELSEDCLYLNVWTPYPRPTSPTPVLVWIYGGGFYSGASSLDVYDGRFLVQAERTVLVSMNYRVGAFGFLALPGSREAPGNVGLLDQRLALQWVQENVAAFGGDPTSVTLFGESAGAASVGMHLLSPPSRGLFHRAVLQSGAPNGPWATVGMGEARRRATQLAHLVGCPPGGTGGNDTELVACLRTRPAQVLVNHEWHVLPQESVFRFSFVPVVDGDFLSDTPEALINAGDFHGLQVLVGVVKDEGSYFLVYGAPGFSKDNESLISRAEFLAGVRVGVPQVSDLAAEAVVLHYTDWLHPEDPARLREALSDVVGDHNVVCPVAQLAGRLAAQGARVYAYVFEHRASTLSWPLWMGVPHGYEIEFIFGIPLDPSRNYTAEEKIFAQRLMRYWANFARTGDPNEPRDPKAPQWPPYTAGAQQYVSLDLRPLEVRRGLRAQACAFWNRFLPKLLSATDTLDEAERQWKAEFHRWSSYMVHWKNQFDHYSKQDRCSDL

`CN1CC[C@]2(C)c3cc(OC(=O)Nc4ccccc4)ccc3N(C)[C@H]12` [(+)-Phenserine, (+)9-N-phenylcarbinol eseroline]: the acetylcholinesterase inhibitor activity result is “lacking significant acetylcholinesterase inhibitor activity” in data set [1] and “lacks anticholinesterase activity” in data set [1] (setting [3]). For the same compound, the entries for the “production/formation of β-APP” value in data set [2] and in data set [2] (setting [3]) were “reduces the production of β-APP” and “inhibits β-APP production”, respectively.
